In patent publication US20240307409A1, “ARGININE METHYLTRANSFERASE INHIBITOR AND USE THEREOF” (Cytosinlab Therapeutics Co., Ltd., priority 2021, published 2024):

Tests used:
PRMT3 = PRMT3 (Homo sapiens, UniProt O60678); assay: PRMT panel selectivity test, PRMT3; type: biochemical; details: AlphaLISA
Method: (§1) This experiment was assayed in a buffer prepared on the same day consisting of 10 mMTirs-HCl (pH=8.0), […] and 1 mM DTT. The compounds were prepared to the highest inhibitor concentration ultimately required in the 100× reaction with 100% DMSO and then transferred to one well of a 384-well Echo plate (Echo-eligible 384-well polypropylene microplates 2.0, transparent, flat-bottomed) and sequentially diluted in the next well with a 3-fold dilution of 100% DMSO, and so on, with a total of 10 concentrations based on Precision. 100% DMSO was added to two empty wells as control well without compound and control well without enzyme in the same 384-well Echo plate. 100 nL of compound was transferred from each well of the 384-well Echo plate to a 384-well assay plate (OptiPlate (384-well, white)) via the Echo 550 liquid processor. For wells with compounds and control well without compound, a mixture containing PRMT1 enzyme (5 uL) was added to the 384-well assay plate. For control well without enzyme, a mixture containing test buffer (5 uL) was added instead. The compounds were allowed to incubate with PRMT3 for 15 minutes at room temperature, and then a mixture containing cold SAM and peptide (5 uL) was added to start the reaction (final volume=10 uL). The final concentrations of the components were as follows: 0.1 nM for PRMT3, 15 uM for SAM, 0.05 uM for peptide, and 1% DMSO. After 60 min of incubation at room temperature, the reaction was terminated by the addition of donor and acceptor magnetic beads (15 uL) with a final concentration of 10 ug/mL diluted with AlphaLISA Epigenetics Buffer. The 384-well assay plate was incubated at room temperature for 60 min and the relative fluorescence units (RFU) were nextly determined using a multi-mode plate reader in Alpha mode (Ex680/Em615).
(§2) Curve fitting: the raw data were copied from Reader and the inhibition values were calculated in Excel by equation (1). […]

PRMT4 = molecular target: T1, PRMT4 (Homo sapiens, UniProt Q86X55); assay: PRMT panel selectivity test, PRMT4; type: biochemical
T1 sequence (Q86X55 1-608): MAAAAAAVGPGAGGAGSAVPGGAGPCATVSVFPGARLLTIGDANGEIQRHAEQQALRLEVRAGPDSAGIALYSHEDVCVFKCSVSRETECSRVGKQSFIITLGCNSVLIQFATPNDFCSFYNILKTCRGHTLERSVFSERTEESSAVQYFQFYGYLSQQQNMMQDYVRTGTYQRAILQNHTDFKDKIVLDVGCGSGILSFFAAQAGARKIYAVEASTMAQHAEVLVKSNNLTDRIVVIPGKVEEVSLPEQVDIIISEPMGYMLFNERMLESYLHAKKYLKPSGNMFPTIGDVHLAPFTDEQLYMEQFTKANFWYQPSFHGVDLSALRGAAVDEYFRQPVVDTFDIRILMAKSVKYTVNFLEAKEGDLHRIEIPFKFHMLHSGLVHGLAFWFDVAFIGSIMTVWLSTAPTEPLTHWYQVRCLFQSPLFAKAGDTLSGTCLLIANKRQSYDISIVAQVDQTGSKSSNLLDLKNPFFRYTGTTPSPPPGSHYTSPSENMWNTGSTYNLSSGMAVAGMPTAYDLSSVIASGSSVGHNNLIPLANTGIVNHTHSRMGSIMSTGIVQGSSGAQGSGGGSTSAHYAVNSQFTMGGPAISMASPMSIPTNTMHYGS
Method: [The procedure below names another target; the source says it served here with some conditions changed.] as §1, §2

PRMT3, sequence (O60678 whole entry): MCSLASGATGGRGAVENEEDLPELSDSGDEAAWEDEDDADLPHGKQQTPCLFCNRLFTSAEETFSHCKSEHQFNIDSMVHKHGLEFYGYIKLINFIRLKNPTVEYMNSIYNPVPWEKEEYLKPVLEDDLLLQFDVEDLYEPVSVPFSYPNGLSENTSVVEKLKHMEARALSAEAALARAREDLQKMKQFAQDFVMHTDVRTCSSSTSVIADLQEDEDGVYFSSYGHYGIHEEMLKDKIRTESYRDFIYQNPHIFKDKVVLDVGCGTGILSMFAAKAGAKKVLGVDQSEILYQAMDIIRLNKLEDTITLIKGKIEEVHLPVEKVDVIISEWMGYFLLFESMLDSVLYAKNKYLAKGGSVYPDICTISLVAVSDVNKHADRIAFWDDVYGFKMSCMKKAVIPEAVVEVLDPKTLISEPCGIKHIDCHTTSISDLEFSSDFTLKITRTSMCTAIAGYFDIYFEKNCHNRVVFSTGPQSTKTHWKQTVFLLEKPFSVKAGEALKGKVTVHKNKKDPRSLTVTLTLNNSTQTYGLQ

Row | IC50 (PRMT3) [µM] | IC50 (PRMT4) [µM] | Compound
1 | < 0.05 | < 0.05 | CNCCN(C)Cc1ccccc1C1CCN(c2ccccc2)CC1 [P023]
2 | 0.05 to 0.5 | 0.05 to 0.5 | CNCCN(C)Cc1ncccc1N1CCc2ccccc2CC1 [P118]
3 | 0.05 to 0.5 | < 0.05 | CCOCC1(COCC)CCC(c2cccnc2CN(C)CCNC)CC1 [P207]
